Measured values published in the supplement of paper PMC10307832.

What was measured:
Test in all cases: relative viability (nuclei count vs DMSO), 5 days (fraction); higher = more cells survive
[1] = compound: Cn1cc(-c2cnn3c(N)c(Br)c([C@@H]4CCCNC4)nc23)cn1 + C[C@@H](Oc1cc(-c2cnn(C3CCNCC3)c2)cnc1N)c1c(Cl)ccc(F)c1Cl [Crizotinib] (partner 1 µM)
Method in brief: (§1)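 The day after seeding in 1536-well plates, lung cancer cell lines were treated by pin tool with a single drug, or with a fixed anchor-drug dose together with five library-drug doses (not always all listed) in √10 steps. After 5 days, a combined fix-and-stain solution (final 0.05% Triton X-100, 1% formaldehyde, 1 ug/ml Hoechst) was added. Nuclei counted on 4× images gave relative viability as treated counts over vehicle counts, reported as the median of duplicate plates.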

[2] = compound: Cn1cc(-c2cnn3c(N)c(Br)c([C@@H]4CCCNC4)nc23)cn1 + O=C(CCCCCCC(=O)Nc1ccccc1)NO [Vorinostat] (partner 1 µM)
Method in brief: as §1

[3] = compound: Cn1cc(-c2cnn3c(N)c(Br)c([C@@H]4CCCNC4)nc23)cn1 + CC1(C)CCC(c2ccc(Cl)cc2)=C(CN2CCN(c3ccc(C(=O)NS(=O)(=O)c4ccc(N[C@H](CCN5CCOCC5)CSc5ccccc5)c(S(=O)(=O)C(F)(F)F)c4)cc3)CC2)C1 [Navitoclax] (partner 0.5 µM)
Method in brief: as §1

[4] = compound: Cn1cc(-c2cnn3c(N)c(Br)c([C@@H]4CCCNC4)nc23)cn1 + Cc1cc(Nc2cc(N3CCN(C)CC3)nc(Sc3ccc(NC(=O)C4CC4)cc3)n2)n[nH]1 [Tozasertib] (partner 0.1 µM)
Method in brief: as §1

Cell Line	relative viability ([1]; first compound 0.05 µM)	relative viability ([1]; first compound 0.1581 µM)	relative viability ([1]; first compound 0.5 µM)	relative viability ([1]; first compound 1.581 µM)	relative viability ([1]; first compound 5 µM)	relative viability ([2]; first compound 0.05 µM)	relative viability ([2]; first compound 0.1581 µM)	relative viability ([2]; first compound 0.5 µM)	relative viability ([2]; first compound 1.581 µM)	relative viability ([2]; first compound 5 µM)	relative viability ([3]; first compound 0.05 µM)	relative viability ([3]; first compound 0.1581 µM)	relative viability ([3]; first compound 0.5 µM)	relative viability ([3]; first compound 1.581 µM)	relative viability ([3]; first compound 5 µM)	relative viability ([4]; first compound 0.05 µM)	relative viability ([4]; first compound 0.1581 µM)	relative viability ([4]; first compound 0.5 µM)	relative viability ([4]; first compound 1.581 µM)	relative viability ([4]; first compound 5 µM)
NCI-H3122	0.305	0.275	0.255	0.273	0.263	0.999	1.12	0.987	0.88	1.11	1.06	1.05	1.05	1.03	1.11	0.508	0.403	0.401	0.283	0.329
NCI-H1651	0.902	0.985	0.806	0.821	0.569	0.543	0.587	0.512	0.531	0.39	1.06	1.36	0.865	0.555	0.408	0.586	0.721	0.641	0.429	0.176
NCI-H838	0.925	0.987	0.783	0.785	0.561	0.788	0.779	0.742	0.65	0.527	1.15	1.21	1.08	1.08	1.16	0.272	0.244	0.312	0.264	0.19
NCI-H596	0.943	1.01	1.05	0.906	0.953	0.517	0.602	0.624	0.356	0.455	1.01	1.02	1.13	0.847	0.904	1.02	1.08	0.719	0.857	0.562
SK-LU-1	0.877	–	0.483	0.33	0.264	0.92	0.631	0.407	0.369	0.281	0.717	–	0.254	0.188	0.186	0.35	0.193	0.192	0.201	0.169
NCI-H441	0.639	1.24	0.648	0.703	0.709	0.759	0.896	0.721	0.429	0.326	0.534	0.857	0.671	–	0.696	0.922	0.777	0.651	0.675	0.657
SK-MES-1	1.07	1.11	0.918	0.934	0.366	1.22	0.877	0.788	0.38	0.216	1.29	1.25	1.11	1.02	0.352	0.987	0.675	0.57	0.268	0.137
NCI-H1355	0.984	1.12	1.07	1.01	0.698	0.645	0.743	0.664	0.524	0.564	0.964	0.945	0.926	0.986	0.857	0.553	0.614	0.509	0.45	0.423
SW 1573	0.794	1.07	0.9	0.747	0.73	0.818	0.967	0.682	0.582	0.721	0.976	1.07	1.08	0.853	1.07	0.175	0.175	0.17	0.176	0.149
NCI-H2347	0.63	0.588	0.788	0.668	0.637	0.525	0.585	0.511	0.482	0.4	0.742	0.818	0.735	0.576	0.678	0.539	0.563	0.518	0.49	0.44
LCLC-97TM1	0.34	0.658	0.581	0.483	0.228	0.67	0.95	0.936	0.582	0.433	0.462	0.439	0.325	0.343	0.46	0.202	0.286	0.188	0.269	0.194
EMC-BAC-2	0.73	0.769	0.715	0.646	0.703	0.275	0.351	0.35	0.46	0.23	1.26	1.25	1.14	1.01	1.43	0.277	0.292	0.251	0.252	0.218
NCI-H1975	1.01	1.05	0.781	0.764	0.714	0.793	0.715	0.686	0.547	0.548	1.21	1.14	1.01	0.908	0.989	0.868	0.757	0.63	0.532	0.51
BEN	0.911	0.969	0.861	0.745	0.608	0.659	0.531	0.558	0.644	0.508	0.0592	0.289	0.0589	0.0666	0.0768	0.606	0.494	0.467	0.714	0.489
NCI-H23	0.444	0.534	0.437	0.322	0.183	0.547	0.508	0.424	0.206	0.125	1.01	1.04	0.72	0.602	0.342	0.247	0.878	0.399	0.311	0.179
NCI-H520	0.743	0.821	0.694	0.601	0.589	0.681	0.676	0.702	0.467	0.446	1.21	1.01	0.966	1.13	0.883	0.471	0.397	0.41	0.444	0.342
